For data set [1] the following is noted: cited from earlier work; for pKa: Table 1, pKa of the parent weak acid of the sodium salt; for pKa1 / pKa2: 25° C.
For data set [2] the following is noted: external use on burn wounds in HSST; cited from earlier work.
The conditions of data set [3]: at 25° C.; KCl and NaHCO3 values are assumed (NaHCO3: Leaist et al); cited from earlier work.
The nature of data set [4]: Acid/base dissociation constants of weak acids and their sodium salts. As to conditions: anion of the salt in water; for Kb: Kb=10^−pKb.

The term pKa denotes the negative logarithm of the acid dissociation constant. Regarding `O=C([O-])CC(O)(CC(=O)[O-])C(=O)[O-].[Na+].[Na+].[Na+]` [Trisodium Citrate], in data set [1], the pKa is on record as 3.14.

Take `CC(O)C(=O)[O-].[Na+]` (stereo not shown) [Sodium Lactate]: the pKa in data set [1] is given as 3.86.

For the compound `CCN(CC)CC(=O)Nc1c(C)cccc1C` [lidocaine], in data set [2], the “dosage considered safe for external use” value was “less than 400 mg”.

In the case of `[Cl-].[K+]` [KCl], the “diffusivity in water DAB” value in data set [3] is 13.6·10^−6 cm^2/s.

Regarding `O=C(O)CC(O)(CC(=O)O)C(=O)O` [Citric Acid], in data set [1], the pKa1 is reported as 2.92, the pKa2 is 4.28 and the pKa3 is 5.21.

What is called pKb is the negative decadic logarithm of the Kb, by convention in mol/L. On to `O=C([O-])O.[Na+]` [Sodium Bicarbonate], for which the Kb in data set [4] is recorded as 2.24*10^−6. Also, in data set [4] (pKb=14.00−pKa, 25° C.), the pKb is 7.65. In addition, in data set [1], the pKa1 is given as 6.35, the pKa2 was 10.3 and the pKa is on record as 6.35.

Turning to `CC(O)C(=O)O` (stereo not shown) [Lactic Acid], in data set [4], the Kb is 7.24*10^−12.
